Test results published in US11340219B2, “Anti-pY1235-MET immunological binding reagent” (THE UNITED STATES OF AMERICA AS REPRESENTED BY THE …, priority 2016, dated 2022).
“Also recorded” adds a separate entry of the source. Like-named read-outs stand apart in the source and are kept apart here.

Columns and labels:
[1] = system: GTL-16 tumor xenografts; assay: GTL-16 xenograft tumor growth; type: in vivo, mice
Description: Animal models and drug administration. Athymic nude mice (nu/nu NCr; Animal Production Program, NCI-Frederick) were implanted with the human cancer cell lines U87 (glioblastoma); A549 (lung carcinoma); MDA-MB-231 (breast carcinoma); HT-29 (colon carcinoma); or with GTL-16, MKN45, or SNU5 (all gastric carcinomas, MET-amplified) as described (17). […] Sorafenib was dissolved in DMSO for in vitro studies. […] Tivantinib was administered orally in a PEG 400:20% vitamin E tocopheryl polyethylene glycol succinate solution (60:40) vehicle. Fit-for-purpose MET inhibitor studies.

[2] = biological target: MET (Homo sapiens, UniProt P08581)
Description: Fit-for-purpose MET inhibitor studies. […] Extracts of core needle biopsies collected 4 h after tivantinib administration on Day 8 were analyzed for MET, pMET, and hypoxia inducible factor 1, alpha subunit (HIF-1α) (21).
MET immunoassay procedure. The full-length MET immunoassay measures the total levels of full-length MET in tumor tissue samples, irrespective of phosphorylation status. […] Wells were blocked for 2 h with 1×PBS, 0.5% mannitol, 0.2% glycine, and 0.2% BSA, and strips were assembled on 96-well plate frames, freeze-dried, and sealed in desiccated pouches (6-month stability). For the immunoassay, 100 μL each of purified rMET calibrator, controls, and tumor lysates (at protein concentrations of 10-50 μg/mL) prepared in assay buffer (1×PBS/Casein [BioFx] containing PhosSTOP, protease inhibitors and 0.1% Triton X-100 [Roche]) were added to the AF276-coated wells. The rMET assay calibrator was prepared for the dynamic range of the assay. Plates were incubated at ambient temperature (25° C.±3° C.) on an orbital shaker (600 rpm) 1 h to capture MET. After three washes with assay buffer, 100 μL/well 200 ng/mL biotin-conjugated mouse monoclonal MET antibody (clone L41G3) was added to the plates and incubated 1 h at 25° C.±3° C., followed by a second wash and the addition of 100 μL/well 200 ng/mL streptavidin poly-HRP conjugate (Pierce). After 30-min incubation with the HRP-conjugate, plates were washed 4 times and 100 μL SuperSignal ELISA Pico Chemiluminescent Substrate (pierce) was added to each well. Plates were read within 10 min using an Infinite 200 Microplate ELISA reader (Tecan, USA). MET immunoassay calibration curves were analyzed on GraphPad Prism and unknown values were calculated using 4-parameter curve fitting.
Three different pMET immunoassays were developed for the PD studies: pY1234/1235-, pY1235-, and pY1356-MET (Supplemental Material). […] The pMET assay calibrators were prepared for the dynamic range of each assay. Assay control samples were prepared by combining GTL-16, SNU5, A549, MKN45, or U87 xenograft tumor lysates to achieve low, medium, and high MET concentrations at 10 to 50 μg/mL total protein concentrations.

[3] = system: pY1235-MET in MET-expressing cell lines (GTL-16, HT29, A549); assay: pY1235-MET immunofluorescence staining of treated cancer cell lines; type: cell-based, human; conditions: 100 nM drug, clone 23111 staining, FIG. 1B
Description: MET immunofluorescence analysis. […] Cells were fixed in 10% neutral-buffered formalin (Sigma-Aldrich) for 24 h, pelleted, and then embedded in paraffin. After 5-μm sectioning, antigen retrieval with Bond Epitope Retrieval Solution 2 (at 100° C. for 10 min) and immunofluorescent staining were performed on the Bond-max Autostainer (Leica Biosystems). For antigen detection, 10 μ/mL primary antibody (anti-pY1235-MET, clone 23111) was followed by 10 μg/mL goat anti-rabbit AF488 (Life Technologies). Immunofluorescence microscopy was performed on core needle biopsies of a resected a human HPRC tumor stained with 5 μg/mL anti-full-length MET (clone Met4) followed by 10 μg/mL anti-mouse AF660 (Life Technologies). Image acquisition and analysis were performed on a wide-field fluorescent, confocal microscope (Nikon 90i, Andor Camera, NIS Elements Software).

[4] = system: HIF-1α; assay: HIF-1α immunoassay in SNU5 xenograft extracts; type: in vivo; conditions: SNU5, day 8, pazopanib 100 mg/kg daily, p<0.05
[5] = biological target: pY1235-MET (Homo sapiens, UniProt P08581); assay: BIAlite-Biosensor interaction analysis of antibody binding affinity; conditions: range of protein concentrations, details not shown
Description: To facilitate bulk production, rabbit monoclonal antibodies (clones 23111 and 7334) were converted into recombinant proteins through transient expression in HEK293 cells (8). The cDNA from rabbit hybridomas was used to clone IgG heavy and light chains in a 7.7 kB ampicillin-resistant mammalian expression vector co-expressing EB oriP, zeocin selection, and CMV promoter for transient expression in HEK293 cells. For mammalian expression plasmids, DNA was prepared using the GenElute XP Maxiprep kit (Sigma-Aldrich) and verified by agarose gel electrophoresis. Recombinant protein production provided typical yields of 100-300 mg/L in suspension cultures. Specificity of antibodies, determined by Western blot using xenograft lysate and rMET protein, was unaffected by this process. To further characterize these MET antibodies, their binding affinities were measured over a range of protein concentrations using interaction analysis performed with a BIAlite-Biosensor (Pharmacia) as previously described (9).

[6] = system: pY1234-MET; assay: Western blot specificity analysis; type: binding; conditions: FIG. 7A
Description: (§1) Rabbits were selected for splenectomy and B-cells were subsequently fused with the rabbit cell line 240E-W2 to produce hybridomas based on high antiserum binding to phosphorylated synthetic peptide and lower or undetectable binding to the nonphosphorylated synthetic peptide of identical sequence. Specificity of the pY1235-MET antibody (clone 23111) was tested by preincubating the antibody with synthetic MET peptides phosphorylated at Y1235 (99% phosphorylated at Y1235, nonphosphorylated at Y1234, 1% other impurities) or at Y1234, or preincubating with recombinant RON (cytoplasmic domain, Millipore) (FIG. 7A). Only preincubation with the pY1235 peptide blocked binding of the antibody to the MET protein band. Specificity of clone 23111 was further confirmed by Western blotting of a GST-fusion with MET amino acids 912-1390 harboring a Y1235D-specific mutation (N-terminal GST-Y1235D-MET peptide, 76 kDa; CarnaBio USA, Inc) and of a recombinant cytoplasmic domain of RON (FIG. 7B). […] According to the manufacturer's specifications, anti-pY1234/1235-MET (clone D26) can also bind to tyrosine phosphorylated SRC proteins by Western blot.
(§2) Protein concentrations were determined by bicinchoninic acid assay (BCA assay), and cell lysate loads between 25 and 50 μg per well were run on 4% to 20% precast polyacrylamide gradient gels (Bio-Rad Laboratories) for SDS-PAGE at 100 V for up to 2 hours. Proteins separated by gel electrophoresis were transferred to a nitrocellulose membrane using the Mini-PROTEAN Tetra electrophoresis system (Bio-Rad) at 90 V for 4 hours at 2° C. to 8° C. Membranes were blocked in Odyssey blocking buffer (LI-COR) for 1 hour at 25° C.±3° C. Blots were probed first with 1 μg/mL mouse, rabbit, or goat anti-MET monoclonal antibody in Odyssey blocking buffer overnight at 2° C. to 8° C. with slow orbital shaking and then with an IR dye-labeled secondary antibody against mouse, rabbit, or goat antibody (1:5000 in Odyssey blocking buffer; LI-COR) for 1 hour at 25° C.±3° C. with orbital shaking. Blots were visualized using the Odyssey Infrared imager (LI-COR). […]

[7] = biological target: T1, recombinant Y1235D-MET peptide (N-terminal GST-Y1235D-MET) (Homo sapiens, UniProt P08581, Y1235D); assay: Western blot specificity analysis; type: binding; conditions: FIG. 7B
T1 construct: a GST-fusion with MET amino acids 912-1390 harboring a Y1235D-specific mutation; purchased CarnaBio USA, Inc
Description: as §1, §2

[8] = biological target: T2, recombinant cytoplasmic domain of RON (Homo sapiens, UniProt Q04912); assay: Western blot specificity analysis; type: binding; conditions: FIGS. 7A and 7B
T2 construct: preincubating with recombinant RON (cytoplasmic domain, Millipore); purchased Millipore
T2 sequence (Q04912 979-1400 limits assumed): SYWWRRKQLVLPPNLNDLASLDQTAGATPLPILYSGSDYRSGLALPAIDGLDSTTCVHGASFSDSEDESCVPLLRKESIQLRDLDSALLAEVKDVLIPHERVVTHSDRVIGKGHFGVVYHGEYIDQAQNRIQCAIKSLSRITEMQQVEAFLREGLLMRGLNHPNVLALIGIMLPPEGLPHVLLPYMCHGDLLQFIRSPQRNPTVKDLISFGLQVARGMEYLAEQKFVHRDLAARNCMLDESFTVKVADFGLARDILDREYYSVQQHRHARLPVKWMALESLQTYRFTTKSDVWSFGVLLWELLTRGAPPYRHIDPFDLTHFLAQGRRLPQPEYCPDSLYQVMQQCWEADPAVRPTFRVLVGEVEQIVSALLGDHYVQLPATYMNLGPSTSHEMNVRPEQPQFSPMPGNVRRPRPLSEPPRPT
Description: as §1, §2

Cc1[nH]c(/C=C2\C(=O)Nc3ccc(S(=O)(=O)Cc4c(Cl)cccc4Cl)cc32)c(C)c1C(=O)N1CCC[C@@H]1CN1CCCC1 [PHA665752]
tumor growth ([1]; 25 and 50 mg/kg/day IP, after 8-10 days of treatment): achieved tumor stasis | reduction in pY1235-MET:MET ratio ([2]; GTL-16, 25 mg/kg IP, 4 h after first dose): 62% | reduction in pY1235-MET:MET ratio ([2]; GTL-16, 50 mg/kg IP, 4 h after first dose): 80% | reduction in pY1235-MET:MET ratio ([2]; GTL-16, 4 h after the first dose (discussion summary)): 60-80% | pY1356-MET:MET ratio ([2]; GTL-16, PHA665752 after first dose, recovered to normal within 20 h): declined after the first dose

C[C@@H](Oc1cc(-c2cnn(C3CCNCC3)c2)cnc1N)c1c(Cl)ccc(F)c1Cl [PF02341066, crizotinib]
tumor growth ([1]; daily oral 25 mg/kg, by the seventh day of treatment): achieved stasis

CNC(=O)c1cc(Oc2ccc(NC(=O)Nc3ccc(Cl)c(C(F)(F)F)c3)cc2)ccn1 [sorafenib]
sensitivity of pY1235-MET plasma membrane staining to drug [3]: not

Cc1ccc(Nc2nccc(N(C)c3ccc4c(C)n(C)nc4c3)n2)cc1S(N)(=O)=O [pazopanib]
increase in HIF-1α levels [4]: 46%

B1: clone 23111: rabbit monoclonal antibody specific to pY1235-MET; VH SEQ ID NO:1, VL SEQ ID NO:2 (antibody, V domains shown)
VH: QSVEESGGRLVTPGTPLTLTCTVSGFSLSNYAMGWFRQAPGKGLEWIGIISRSGALWYANWANGRFTISKTSTTVDLKITSPTPEDTATYFCARTNYYDGYGGVDAVLTRFDFWGQGTLVTVSSG
VL: ADVVMTQTPSSVEAAVGGTVTIKCQASQSIGGGLSWYQQKAGQPPKLLIYGASTLESGVPSRFKGSGSGTEFTLTISDLECADAATYYCQSNYGSDIRDYGHTFGGGTEVVVKGDPVAPTVLIFPP
IC50 [5]: 1.2 nM | reactivity with MET epitope phosphorylated only at Y1234 [6]: no cross-reactivity; also recorded: undetectable reactivity | reactivity with Y1235D-MET (tyrosine 1235 replaced by aspartic acid) [7]: no cross-reactivity; also recorded: undetectable cross-reactivity | cross-reactivity with cytoplasmic domain of RON [8]: no cross-reactivity
